Consider 7 molecules from patent US8586357B2, “Markers of definitive endoderm” (ViaCyte, Inc., priority 2003, dated 2013).

Experiment [1] deals with definitive endoderm cells vs hESCs. Kind of experiment: Gene chip analysis (Affymetrix U133 Plus 2.0) of purified definitive endoderm compared to hESCs. It counts as cell-based, human. The procedure:
In the following experiment, RNA was isolated from purified definitive endoderm and human embryonic stem cell populations. Gene expression was then analyzed by gene chip analysis of the RNA from each purified population. Q-PCR was also performed to further investigate the potential of genes expressed in definitive endoderm, but not in embryonic stem cells, as a marker for definitive endoderm. Human embryonic stem cells (hESCs) were maintained in DMEM/F12 media supplemented with 20% KnockOut Serum Replacement, 4 ng/mL recombinant human basic fibroblast growth factor (bFGF), 0.1 mM 2-mercaptoethanol, L-glutamine, non-essential amino acids and penicillin/streptomycin. hESCs were differentiated to definitive endoderm by culturing for 5 days in RPMI media supplemented with 100 ng/mL of recombinant human activin A, fetal bovine serum (FBS), and penicillin/streptomycin. The concentration of FBS was varied each day as follows: 0.1% (first day), 0.2% (second day), 2% (days 3-5). Cells were isolated by fluorescence activated cell sorting (FACS) in order to obtain purified populations of hESCs and definitive endoderm for gene expression analysis. […] Cells were dissociated using trypsin/EDTA (Invitrogen, cat#25300-054), washed in phosphate buffered saline (PBS) containing 2% human serum and resuspended in 100% human serum on ice for 10 minutes to block non-specific binding. Staining was carried out for 30 minutes on ice by adding 200 uL of phycoerythrin-conjugated antibody to 5×10^6 cells in 800 uL human serum. Cells were washed twice with 8 mL of PBS buffer and resuspended in 1 mL of the same. FACS isolation was carried out by the core facility of The Scripps Research Institute using a FACS Vantage (BD Biosciences). Cells were collected directly into RLT lysis buffer and RNA was isolated by RNeasy according to the manufacturers instructions (Qiagen). Purified RNA was submitted in duplicate to Expression Analysis (Durham, N.C.) for generation of the expression profile data using the Affymetrix platform and U133 Plus 2.0 high-density oligonucleotide arrays. Data presented is a group comparison that identifies genes differentially expressed between the two populations, hESCs and definitive endoderm. […] The “Gene_Symbol” column refers to the unique name given to the gene by the HUGO Gene Nomenclature Committee. The “Raw Fold Change” column refers to the fold difference in signal for each gene in definitive endoderm compared to hESCs. The “Unigene,” “LocusLink,” and “OMIM” columns refer to identifiers that are descriptive and functional annotations derived from current National Center for Biotechnology Information (NCBI) releases of the UniGene, LocusLink, OMIM, and HomoloGene publicly available databases. […]

For experiment [2], the system named is human definitive endoderm cells. Kind of experiment: Differentiation factor screening: Q-PCR of albumin, PROX1 and TITF1. It counts as cell-based. The procedure:
To exemplify the differentiation factor screening methods described herein, populations of human definitive endoderm cells produced using the methods described herein were separately provided with several candidate differentiation factors while determining the normalized expression levels of certain marker gene products at various time points.
Human definitive endoderm cells were produced as described in the foregoing Examples. In brief, hESCs cells were grown in the presence of 100 ng/ml activin A in low serum RPMI medium for four days, wherein the fetal bovine serum (FBS) concentration on day 1 was 0%, on day 2 was 0.2% and on days 3-4 was 2%. After formation of definitive endoderm, beginning on day 5 and ending on day 10, cell populations maintained in individual plates in RPMI containing 0.2% FBS were treated with one of: Wnt3A at 20 ng/ml, FGF2 at 5 ng/ml or FGF2 at 100 ng/ml. The expression of marker gene products for albumin, PROX1 and TITF1 were quantitated using Q-PCR.

Experiment [3] relates to definitive endoderm cells. Kind of experiment: Maintenance and expansion of definitive endoderm cells in culture in the presence of activin. It counts as cell-based, human. The source says:
Definitive endoderm cells produced by methods described herein have been maintained and expanded in culture in the presence of activin for greater than 50 days without appreciable differentiation. In such cases, SOX17, CXCR4, MIXL1, GATA4, HNF3β expression is maintained over the culture period. Additionally, TM, SPARC, OCT4, AFP, SOX7, ZIC1 and BRACH were not detected in these cultures. It is likely that such cells can be maintained and expanded in culture for substantially longer than 50 days without appreciable differentiation.

In experiment [4] the test system is hESCs (hESCyt-25). Kind of experiment: Q-PCR gene expression assay of marker genes in differentiating hESCs. It counts as cell-based, human. The following applies: Wnt3a added to activin A and activin B treated cultures; FIG. 23. How it is done:
In the following experiments, real-time quantitative RT-PCR (Q-PCR) was the primary assay used for screening the effects of various treatments on HESC differentiation. In particular, real-time measurements of gene expression were analyzed for multiple marker genes at multiple time points by Q-PCR. Marker genes characteristic of the desired as well as undesired cell types were evaluated to gain a better understanding of the overall dynamics of the cellular populations. The strength of Q-PCR analysis includes its extreme sensitivity and relative ease of developing the necessary markers, as the genome sequence is readily available. Furthermore, the extremely high sensitivity of Q-PCR permits detection of gene expression from a relatively small number of cells within a much larger population. In addition, the ability to detect very low levels of gene expression provides indications for “differentiation bias” within the population. The bias towards a particular differentiation pathway, prior to the overt differentiation of those cellular phenotypes, is unrecognizable using immunocytochemical techniques. […] Additionally, Q-PCR provides a mechanism by which to evaluate the success of a differentiation protocol in a quantitative format at semi-high throughput scales of analysis.
The approach taken here was to perform relative quantitation using SYBR Green chemistry on a Rotor Gene 3000 instrument (Corbett Research) and a two-step RT-PCR format. Such an approach allowed for the banking of cDNA samples for analysis of additional marker genes in the future, thus avoiding variability in the reverse transcription efficiency between samples.
Primers were designed to lie over exon-exon boundaries or span introns of at least 800 bp when possible, as this has been empirically determined to eliminate amplification from contaminating genomic DNA.
We routinely used Q-PCR to measure the gene expression of multiple markers of target and non-target cell types in order to provide a broad profile description of gene expression in cell samples. The markers relevant for the early phases of hESC differentiation (specifically ectoderm, mesoderm, definitive endoderm and extra-embryonic endoderm) and for which validated primer sets are available are provided below in Table 1. […] This is an important fact since the hESCs were often grown on mouse feeder layers. Most typically, triplicate samples were taken for each condition and independently analyzed in duplicate to assess the biological variability associated with each quantitative determination.
To generate PCR template, total RNA was isolated using RNeasy (Qiagen) and quantitated using RiboGreen (Molecular Probes). Reverse transcription from 350-500 ng of total RNA was carried out using the iScript reverse transcriptase kit (BioRad), which contains a mix of oligo-dT and random primers. Each 20 μL reaction was subsequently diluted up to 100 μL total volume and 3 μL was used in each 10 μL Q-PCR reaction containing 400 nM forward and reverse primers and 5 μL 2×SYBR Green master mix (Qiagen). Two step cycling parameters were used employing a 5 second denature at 85-94° C. (specifically selected according to the melting temp of the amplicon for each primer set) followed by a 45 second anneal/extend at 60° C. Fluorescence data was collected during the last 15 seconds of each extension phase. A three point, 10-fold dilution series was used to generate the standard curve for each run and cycle thresholds (Ct's) were converted to quantitative values based on this standard curve. The quantitated values for each sample were normalized to housekeeping gene performance and then average and standard deviations were calculated for triplicate samples. At the conclusion of PCR cycling, a melt curve analysis was performed to ascertain the specificity of the reaction. A single specific product was indicated by a single peak at the Tm appropriate for that PCR amplicon. […]

Where [5] appears, read: fold difference in gene chip signal (Affymetrix U133 Plus 2.0) for each gene in CXCR4-purified definitive endoderm (5 days, 100 ng/mL activin A) compared to SSEA4-purified hESCs.
[6] abbreviates: fold difference in signal for each gene in definitive endoderm (CXCR4-purified, 5 days 100 ng/mL activin A) compared to hESCs (SSEA4-purified), Affymetrix U133 Plus 2.0.

With APOA1, in experiment [1] (setting [5]), the “Raw Fold Change” value came to 15.05 fold.
The same measure, in the same setting: the same measure for BMP2: 7.76 fold.
“FGF2: growth factor; candidate differentiation factor”: the “expression of the TITF1 marker gene as compared to definitive endoderm cells on day 4” value in experiment [2] (100 ng/ml FGF2, days 7, 9 and 10, FIG. 36C) is on record as “substantially increased”. Also, the “expression of the TITF1 gene product as compared to untreated definitive endoderm” value in experiment [2] (FGF2 at 5 ng/ml, FIG. 36C) is reported as “very little effect”. Further, the “expression of the albumin gene product as compared to definitive endoderm cells on day 4” value in experiment [2] (FGF2 at 5 ng/ml, days 9 and 10, FIG. 36A) is “substantially increased”; in experiment [2] (FGF2 at 100 ng/ml, days 9 and 10, FIG. 36A), “not increased”.
As for NODAL, the “Raw Fold Change” value in experiment [1] (setting [6]) amounted to 7.89 fold.
On the same count and under the same terms, next, NPPB: 35.43 fold.
Consider activin, for which, in experiment [3], the “time definitive endoderm cells maintained and expanded in culture without appreciable differentiation” value is listed as “greater than 50 days”.

B1: Wnt3A: Wnt family growth factor; candidate differentiation factor (protein, UniProt P56704 19-352, looked up)
Protein Wnt-3a: SYPIWWSLAVGPQYSSLGSQPILCASIPGLVPKQLRFCRNYVEIMPSVAEGIKIGIQECQHQFRGRRWNCTTVHDSLAIFGPVLDKATRESAFVHAIASAGVAFAVTRSCAEGTAAICGCSSRHQGSPGKGWKWGGCSEDIEFGGMVSREFADARENRPDARSAMNRHNNEAGRQAIASHMHLKCKCHGLSGSCEVKTCWWSQPDFRAIGDFLKDKYDSASEMVVEKHRESRGWVETLRPRYTYFKVPTERDLVYYEASPNFCEPNPETGSFGTRDRTCNVSSHGIDGCDLLCCGRGHNARAERRREKCRCVFHWCCYVSCQECTRVYDVHTCK
Consider B1, for which the “SOX17 gene expression over that of activins alone” value in experiment [4] was “increases”. Further, the “expression of the albumin gene product as compared to untreated definitive endoderm cells” value in experiment [2] (20 ng/ml Wnt3A, days 9 and 10, FIG. 36A) is “increased”.
